From patent publication US5440041A, “Acetal or ketal substituted xanthine compounds” (Cell Therapeutics, Inc., priority 1994, dated 1995)
Like-named read-outs stand apart in the source and are kept apart here.

What was measured:
human stromal cells = experiment: Stromal cell proliferation stimulated by PDGF; assay type: cell-based; conditions: for IC50: Homo sapiens; for inhibition of proliferation of human stromal cells stimulated with PDGF: in words
Method: Another assay for measuring activity of the inventive compounds involves determining PDGF (platelet derived growth factor) proliferative response using human-derived stromal cells. […] Two to three days later, the stromal cells are starved in serum-free media. Twenty four hours later, the cells are treated with a stimulating agent, such as PDGF-AA, PDGF-BB or basic FGF (fibroblast growth factor) with or without IL-1α or TNF, and tritiated thymidine. Cell proliferation is determined by liquid scintillation counting.
This assay is a model for restenosis and treatment of atherosclerosis and coronary artery disease. Stromal cells were starved in serum-free media for 24 hrs and then stimulated with PDGF-BB (50 ng/ml). The drugs were added at various concentrations one hour prior to PDGF stimulation. Tritiated thymidine was added for 24 hrs at the time of PDGF stimulation and proliferation determined by harvesting and counting the cells by liquid scintillation 24 hrs later.

[1] = system: PBMC (peripheral blood mononuclear cells); experiment: Two-way mixed lymphocyte reaction (MLR); assay type: cell-based, human; conditions: FIG. 1, FIG. 8
Excerpt: Various in vitro assays can be used to measure effects of the inventive compounds to modulate immune activity and have antitumor activity using a variety of cellular types. For example, a mixed lymphocyte reaction (MLR) provides a valuable screening tool to determine biological activity of each inventive compound. In the MLR, PBMCs (peripheral blood mononuclear cells) are obtained by drawing whole blood from healthy volunteers in a heparinized container and diluted with an equal volume of hanks balanced salt solution (HBSS). This mixture is layered on a sucrose density gradient, such as a Ficoll-Hypaque® gradient (specific gravity 1.08), and centrifuged at 1000×g for 25 minutes at room temperature or cooler. PBMC are obtained from a band at a plasma-Ficoll interface, separated and washed at least twice in a saline solution, such as HBSS. Contaminating red cells are lysed, such as by ACK lysis for 10 min at 37° C., and the PBMCs are washed twice in HBSS. The pellet of purified PBMCs is resuspended in complete medium, such as RPMI 1640 plus 20% human inactivated serum. Proliferative response of PBMC to allogeneic stimulation is determined in a two-way MLR performed in a 96-well microtiter plate. […] At the conclusion of the incubation tritiated thymidine is added (for example, 1 μCi/well of 40 to 60 Ci/mmole) and proliferation determined by liquid scintillation counting. […]

293-EBNA cells = experiment: Reporter gene expression (CMV promoter, secreted placental alkaline phosphatase) in tumor cells; assay type: cell-based; conditions: compared with CT1501R, CT1567 and CT1590; absorbance at 405 nm; FIG. 7
Excerpt: FIG. 7 illustrates the effects of CT1590 (racemate N-(5,6-[…]) theobromine), CT1573, CT1567 and CT1501R (an alcohol-substituted xanthine) on cell proliferation as a measure of antitumor activity and the ability of each drug to inhibit gene expression in tumor cells. A specific plasmid construct employing a human CMV (cytomegalovirus) promoter directs the expression of a reporter gene (secreted human placental alkaline phosphatase) that was transformed into the tumor cell line 293-EBNA cells. The cells were treated with various concentrations of drug. Antitumor activity was measured in culture supernatants by expression of alkaline phasphatase reporter gene by absorbance at 405 nm of cell conditioned medium in the presence of substrate (e.g., ortho-nitrophenol phosphate) as described in Berger et al. (Gene 66:1-10, 1988).
This example illustrates the effects of CT1590 (racemate N-(5,6-ethylenedioxyhexyl) theobromine), CT1573, CT1567 and CT1501R (an alcohol-substituted xanthine) on cell proliferation as a measure of antitumor activity and the ability of each drug to inhibit gene expression in tumor cells. A specific plasmid construct employing a human CMV (cytomegalovirus) promoter directs the expression of a reporter gene (secreted human placental alkaline phosphatase) that was transformed into the tumor cell line 293-EBNA cells. […]

VCAM = experiment: Cell surface expression of VCAM in TNF-α-stimulated HUVEC (flow cytometry); assay type: cell-based, human; conditions: TNF-α (20 ng/ml) for 20 hrs; mean fluorescence intensity; FIG. 6
Method: Drug inhibitory activity can also be measured by determining levels of vascular cell adhesion molecule (VCAM) in stimulated cells. Early passage human umbilical vein endothelial cells (HUVEC) (obtained from commercial suppliers such as Cell Systems, Inc. or Clonetics) are cultured in media (e.g., Hepes buffered media, Cell Systems) containing 10% fetal bovine serum, and supplemented with a stimulating agent, such as fibroblast growth factor (acidic FGF, Cell Systems, Inc.) or TNF. The cells are plated into wells of a microliter plate (e.g., 5×10^4 per well) and allowed to incubate at 37° C. for 72 hrs. […] After 30 min on ice, the cells are washed twice and analyzed on a flow cytometer (Coulter Elite®) at appropriate emission and excitation wavelengths (e.g., for phycoerythrin use excitation at 488 nm and emission at […]).
The cells were stimulated with TNF-α(20 ng/ml) for 20 hrs and then stained for immunofluorescence using a monoclonal antibody recognizing VCAM, followed by a goat anti-mouse antibody conjugated to phycoerythrin. The cells were analyzed for antibody binding using flow cytometry.

[2] = system: adhesion of U937 cells to activated human umbilical vein endothelial cells (HUVEC); experiment: Adhesion of U937 cells to TNF-activated HUVEC; assay type: cell-based; conditions: HUVEC activated with 20 ng/ml human TNF for 12 hours; drug one hour prior to TNF; FIG. 5
Method: Another assay measures the effects of drug to inhibit adhesion of U937 cells to TNF-activated HUVEC cells In this experiment, HUVEC cells are induced with human TNF-α (20 ng/ml) and drug at varying concentrations for 14-16 hrs. U937 cells (a human monocyte cell line) are incubated and labeled with BCECF (10 μg/ml), a fluorescent dye. The U937 cell preparation (2.5×10^4 cells per well) is layered on top of the activated HUVEC cells. The cells are reverse spun to remove partially adhering and nonadhering U937 cell. The adherent U937 cells are measured by fluorescence on a fluorescent plate reader.
This example illustrates the effect of CT1573 to inhibit adhesion of U937 cells to activated human umbilical vein endothelial cells (HUVEC). HUVEC cells (4000/well, seeded 72 hrs in advance) were activated with 20 ng/ml of human TNF for 12 hours. CT1573 was added to the samples one hour prior to adding TNF. U937 cells were preloaded with a fluorescent dye (BCECF) were added to the HUVEC cells in each well for 30 min, the cells washed twice with PBS and adhesion measured after washing. Adhesion was measured on a fluorescence plate reader. Background adhesion of U937 cells to non-activated HUVEC is shown as a dashed line.

[3] = system: polymorphonuclear leukocytes; conditions: in response to a stimulator of chemotaxis; U.S. Pat. No. 4,636,507; cited from earlier work
[4] = U.S. Pat. Nos. 4,515,795 and 4,576,947; cited from earlier work
thymocyte [5] = experiment: Thymocyte proliferation stimulated by ConA and IL-2; assay type: cell-based, mice (Balb/C); conditions: drug added two hours prior to activation; FIG. 3
Method: (§1) A thymocyte costimulator assay is conducted to evaluate the inventive compounds to inhibit activation and proliferation of thymocytes caused by stimulation with Con A and interleukin-1 (IL-1), or interleukin-2 (IL-2). Thymuses are obtained from mice (e.g., female Balb/C mice) and the thymuses are removed and dissociated into culture media (e.g., RPMI 1640 without serum supplementation). The dissociated thymus tissue and cell suspension is transferred to centrifuge tubes and allowed to settle, washed with HBSS and resuspended in serum-supplemented culture media (e.g., RPMI 1640 with 10% fetal calf serum). Any contaminating red cells are lysed, and viable cells are resuspended and counted. Thymocytes are plated (e.g., 96-well plates at a density of 2×10^5 cells/well) and a stimulating agent, such as Con A, IL-1 (e.g., IL-1α) or IL-2 is added to the well. The cells are incubated for 4 days at 37° C. On the fourth day, the cells are pulsed with tritiated thymidine and cell proliferation determined. […]
(§2) Thymuses were obtained from normal, female Balb/C mice, dissociated, and plated into 96-well plates at a density of 2×10^5 cells/well. ConA and IL-1α were added to the wells and the cells were incubated for 4 days at 37° C. […] The cells were harvested and incorporated tritiated thymidine was determined in a liquid scintillation counter. […]

thymocyte [6] = experiment: Thymocyte proliferation stimulated by ConA and IL-1α; assay type: cell-based, mice (Balb/C); conditions: drug added two hours prior to activation; FIG. 2
Method: as §1, §2

[7] = PDGF BB and IL-1α, FIG. 4, FIG. 9, read-out: IC50 to inhibit stromal cell proliferation stimulated by PDGF BB and IL-1α

Compound | IC50 (human stromal cells; [7]) | inhibition of proliferation of human stromal cells stimulated with PDGF (human stromal cells) | activity in mixed lymphocyte reaction (proliferative response of PBMC to allogeneic stimulation) [1] | inhibition of cell surface expression of VCAM in HUVEC cells (VCAM) | other results
Cn1cnc2c1c(=O)n(CCCCC1COCO1)c(=O)n2C (racemic) [CT1590, N-(5,6-methylenedioxyhexyl)-3,7-dimethylxanthine] | ~100 µM | strongly inhibit proliferation | showed activity |  | 
Cn1cnc2c1c(=O)n(CCCCCCCCC1COCO1)c(=O)n2C (racemic) [CT1573, N-(9,10-methylenedioxydecyl)-3,7-dimethylxanthine] | < 100 µM | strongly inhibit proliferation |  | inhibit cell surface expression of VCAM | IC50 (human stromal cells; 1 h, PDGF-BB (50 ng/ml), drug one hour prior to stimulation, FIG. 4, read-out: IC50 to inhibit stromal cell proliferation stimulated by PDGF BB): < 100 µM; inhibition of gene expression in tumor cells (antitumor activity) (293-EBNA cells): strongly inhibited gene expression; inhibition of adhesion of U937 cells to activated HUVEC [2]: reduced adhesion in a dose-dependent manner
CC(O)CCCCn1c(=O)c2c(ncn2C)n(C)c1=O (stereo not drawn) [M1, 1-(5-hydroxyhexyl)-3,7-dimethylxanthine] |  |  |  |  | effect on chemotaxis in polymorphonuclear leukocytes [3]: stimulate chemotaxis; effect on cerebral blood flow [4]: increasing cerebral blood flow
Cn1cnc2c1c(=O)n(CCCCCC1OCCO1)c(=O)n2C [CT1567] |  |  | showed activity | inhibit cell surface expression of VCAM | inhibition of thymocyte proliferation stimulated by ConA and IL-2 (thymocyte [5]): inhibited thymocyte proliferation at the highest dose tested; inhibition of thymocyte proliferation stimulated by ConA and IL-1α (thymocyte [6]): inhibited thymocyte proliferation in a dose-response manner
